25 compounds from patent US9163013B2, “Use of 1H-indazole-3-carboxamide compounds as glycogen synthase kinase 3 beta inhibitors” (AZIENDE CHIMICHE RIUNITE ANGELINI FRANCESCO A.C.R.A.F. …, priority 2012, dated 2015) can be followed below.

Molecules are shown by their SMILES. Several values for one entry are separate records, joined by “and”; a condition that tells them apart may be missing. Equal values may be shown once.

T1 sequence (P49841 whole entry): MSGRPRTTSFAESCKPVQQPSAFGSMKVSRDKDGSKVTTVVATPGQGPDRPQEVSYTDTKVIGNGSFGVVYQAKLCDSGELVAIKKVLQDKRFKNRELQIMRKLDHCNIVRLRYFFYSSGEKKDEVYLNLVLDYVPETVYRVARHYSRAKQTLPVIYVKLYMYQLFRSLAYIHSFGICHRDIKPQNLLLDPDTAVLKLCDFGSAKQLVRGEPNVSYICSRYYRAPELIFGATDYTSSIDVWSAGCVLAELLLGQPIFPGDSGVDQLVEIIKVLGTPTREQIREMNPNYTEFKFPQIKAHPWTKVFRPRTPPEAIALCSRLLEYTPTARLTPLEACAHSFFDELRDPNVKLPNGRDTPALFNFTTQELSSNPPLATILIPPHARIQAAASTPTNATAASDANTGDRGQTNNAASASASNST

The target in one assay is T1, human GSK-3β (Homo sapiens (Human), UniProt P49841). In words: LanthaScreen TR-FRET Eu Kinase binding and displacement assay. To be noted: five concentrations 100 μM to 10 nM, duplicate. The method, then:
(§1) In a second assay, the same compounds were assayed at five concentrations ranging from 100 μM to 10 nM with ten-fold dilutions in duplicate. Compounds 1 to 7, 9, 11 and 13 to 26 were tested using the same first assay, compounds 8, 10, 12, and 27 to 31 were tested in another assay based on the binding and displacement of AlexaFluor® 647 labeled, ATP-competitive Kinase inhibitor scaffold using LanthaScreen™ TR-FRET technology Eu Kinase assay packet according to manufacturer's instruction (Life Technologies, Italy).
(§2) The IC50 values (concentration causing a half maximal inhibition of control specific activity), reported in table 4, were determined by non-linear regression analysis of the inhibition curves generated with mean replicate values using Hill equation curve fitting.
In general terms: Time-resolved FRET reads energy transfer from a long-lived donor to a nearby acceptor.
As to `COc1ccc2[nH]nc(C(=O)NCC3CCN(Cc4nc(C(=O)O)cs4)CC3)c2c1` [Compound 8, 2-{[4-({[(5-Methoxy-1H-indazol-3-yl)carbonyl]amino}methyl)piperidin-1-yl]methyl}-1,3-thiazole-4-carboxylic acid], the IC50 stood at 170 nM. Same read-out and setting: to `COc1ccc2[nH]nc(C(=O)NCC3CCN(Cc4nc(C(=O)O)co4)CC3)c2c1` [Compound 10, 2-{[4-({[(5-Methoxy-1H-indazol-3-yl)carbonyl]amino}methyl)piperidin-1-yl]methyl}-1,3-oxazole-4-carboxylic acid hydrate] belongs 310 nM; to `COc1ccc2[nH]nc(C(=O)NCC3CCN(CCC4CCCC(C)C4)CC3)c2c1` (stereo not drawn) [Compound 27, 5-methoxy-N-({1-[2-(3-methylcyclohexyl)ethyl]piperidin-4-yl}methyl)-1H-indazole-3-carboxamide], 310 nM; to `COc1ccc2[nH]nc(C(=O)NCC3CCN(Cc4ccnc(C(=O)O)c4)CC3)c2c1` [Compound 28, 4-{[4-({[(5-methoxy-1H-indazol-3-yl)carbonyl]amino}methyl)piperidin-1-yl]methyl}pyridine-2-carboxylic acid], 450 nM. Same read-out and setting: with `COc1ccc2[nH]nc(C(=O)NCC3CCN(Cc4ccc(C(=O)O)nc4)CC3)c2c1` [Compound 29, Sodium 5-{[4-({[(5-methoxy-1H-indazol-3-yl)carbonyl]amino}methyl)piperidin-1-yl]methyl}pyridine-2-carboxylate] the figure was 320 nM; with `COc1ccc2[nH]nc(C(=O)NCC3CCN(Cc4noc(C(N)=O)n4)CC3)c2c1` [Compound 30, N-({1-[(5-carbamoyl-1,2,4-oxadiazol-3-yl)methyl]piperidin-4-yl}methyl)-5-methoxy-1H-indazole-3-carboxamide], 310 nM.

The next assay deals with T1, human GSK-3β. In words: Activity on human GSK-3β, substrate phosphorylation measured by LANCE technology. Conditions: 10 μM, duplicate, human recombinant GSK-3β, 90 minutes at 22° C. The class given is biochemical. The method, then:
Activity on human GSK-3β was assessed using the following methods (according to Meijer et al., Chem. Biol., 2003-10:1255-1266).
In a first screening assay, compounds were tested in duplicate at a concentration of 10 μM.
Human recombinant enzyme GSK-3β was incubated for 90 minutes at 22° C. in the presence of compounds or vehicle in a reaction buffer containing ATP plus 100 nM unphosphorylated specific substrate peptide (Ulight-[…]-amide). Substrate phosphorylation was measured by LANCE technology (PerkinElmer, Conn., USA).
The results, reported in the following Table 4, are expressed as a percent of inhibition of control specific activity obtained in the presence of the test compounds (as % inhibition at 10 μm).
as §1, §2
For the compound `COc1ccc(CCN2CCC(CNC(=O)c3n[nH]c4ccc(OC)cc34)CC2)cc1` [Compound 2, 5-methoxy-N-({1-[2-(4-methoxyphenyl)ethyl]piperidin-4-yl}methyl)-1H-indazole-3-carboxamide], the “% Inhibition [10 μM]” value is 91% and the inhibition at 10 µM is greater than 90%.

The assay is the same for the next values; noted with them: LANCE phosphorylation assay; five concentrations 100 μM to 10 nM, duplicate; read-out: IC50.
Consider `COc1ccc(CCN2CCC(CNC(=O)c3n[nH]c4ccc(OC)cc34)CC2)cc1` [Compound 2, 5-methoxy-N-({1-[2-(4-methoxyphenyl)ethyl]piperidin-4-yl}methyl)-1H-indazole-3-carboxamide], for which the IC50 is < 600 nM and 560 nM. Still for that read-out and setting: with `COc1ccc2[nH]nc(C(=O)NCC3CCN(Cc4ccc(Cl)cc4Cl)CC3)c2c1` [Compound 3, N-{[1-(2,4-dichlorobenzyl)piperidin-4-yl]methyl}-5-methoxy-1H-indazole-3-carboxamide] the figure was 310 nM; with `COc1ccc2[nH]nc(C(=O)NCC3CCN(Cc4ccc(C(F)(F)F)cc4)CC3)c2c1` [Compound 4, 5-methoxy-N-({1-[4-(trifluoromethyl)benzyl]piepridin-4-yl}methyl)-1H-indazole-3-carboxamide], 640 nM.

For the compound `COc1ccc2[nH]nc(C(=O)NCC3CCN(Cc4ccc(OCc5ccccc5)cc4)CC3)c2c1` [Compound 5, N-({1-[4-(benzyloxy)benzyl]piperidin-4-yl}methyl)-5-methoxy-1H-indazole-3-carboxamide], the IC50 is 350 nM. `COc1ccc2[nH]nc(C(=O)NCC3CCN(Cc4ccc(O)cc4)CC3)c2c1` [Compound 6, N-{[1-(4-hydroxybenzyl)piperidin-4-yl]methyl}-5-methoxy-1H-indazole-3-carboxamide]: the IC50 came out at 400 nM.

Turning to `COC(=O)c1coc(CN2CCC(CNC(=O)c3n[nH]c4ccc(OC)cc34)CC2)n1` [Compound 9, Methyl 2-{[4-({[(5-methoxy-1H-indazol-3-yl)carbonyl]amino}methyl)piperidin-1-yl]methyl}-1,3-oxazole-4-carboxylate], the half-maximal inhibitory concentration (IC50) was determined as 210 nM. On the same count and under the same terms, with `COC(=O)c1coc(CN2CCC(CNC(=O)c3n[nH]c4ccc(Br)cc34)CC2)n1` [Compound 11, Methyl 2-{[4-({[(5-bromo-1H-indazol-3-yl)carbonyl]amino}methyl)piperidin-1-yl]methyl}-1,3-oxazole-4-carboxylate] the figure was 360 nM; with `CCOC(=O)c1nc(CN2CCC(CNC(=O)c3n[nH]c4ccc(OC)cc34)CC2)cs1` [Compound 13, Ethyl 4-{[4-({[(5-methoxy-1H-indazol-3-yl)carbonyl]amino}methyl)piperidin-1-yl]methyl}-1,3-thiazole-2-carboxylate], 950 nM; with `COC(=O)c1ccoc1CN1CCC(CNC(=O)c2n[nH]c3ccc(OC)cc23)CC1` [Compound 14, Methyl 2-{[4-({[(5-methoxy-1H-indazol-3-yl)carbonyl]amino}methyl)piperidin-1-yl]methyl}furan-3-carboxylate], 230 nM. The same measure, in the same setting: to `CCOC(=O)c1ccc(CN2CCC(CNC(=O)c3n[nH]c4ccc(Br)cc34)CC2)o1` [Compound 15, Ethyl 5-{[4-({[(5-bromo-1H-indazol-3-yl)carbonyl]amino}methyl)piperidin-1-yl]methyl}furan-2-carboxylate] belongs 260 nM; to `COc1ncccc1-c1ccc2[nH]nc(C(=O)NCC3CCN(Cc4ccc(C(=O)O)o4)CC3)c2c1` [Compound 16, 5-({4-[({[5-(2-Methoxypyridin-3-yl)-1H-indazol-3-yl]carbonyl}amino)methyl]piperidin-1-yl}methyl)furan-2-carboxylic acid hydrate], 360 nM; to `COc1ccc(-c2ccc3[nH]nc(C(=O)NCC4CCN(Cc5ccc(C(=O)O)o5)CC4)c3c2)cn1` [Compound 17, 5-({4-[({[5-(6-Methoxypyridin-3-yl)-1H-indazol-3-yl]carbonyl}amino)methyl]piperidin-1-yl}methyl)furan-2-carboxylic acid hydrate], 20 nM.

`COc1ccc(-c2ccc3[nH]nc(C(=O)NCC4CCN(Cc5ccc(C(=O)O)o5)CC4)c3c2)cc1` [Compound 18, 5-({4-[({[5-(4-Methoxyphenyl)-1H-indazol-3-yl]carbonyl}amino)methyl]piperidin-1-yl}methyl)furan-2-carboxylic acid hydrate]: the IC50 was 300 nM. Regarding `O=C(O)c1ccc(CN2CCC(CNC(=O)c3n[nH]c4ccc(-c5cccc(F)c5F)cc34)CC2)o1` [Compound 19, 5-({4-[({[5-(2,3-Difluorophenyl)-1H-indazol-3-yl]carbonyl}amino)methyl]piperidin-1-yl}methyl)furan-2-carboxylic acid], the IC50 stood at 10 nM.

With `O=C(O)c1ccc(CN2CCC(CNC(=O)c3n[nH]c4ccc(-c5ccccc5F)cc34)CC2)o1` [Compound 20, 5-({4-[({[5-(2-Fluorophenyl)-1H-indazol-3-yl]carbonyl}amino)methyl]piperidin-1-yl}methyl)furan-2-carboxylic acid hydrate], the IC50 is 20 nM. Consider `O=C(O)c1ccc(CN2CCC(CNC(=O)c3n[nH]c4ccc(Br)cc34)CC2)o1` [Compound 22, 5-{[4-({[(5-Bromo-1H-indazol-3-yl)carbonyl]amino}methyl)piperidin-1-yl]methyl}furan-2-carboxylic acid], for which the IC50 was found to be 210 nM. Turning to `CCOC(=O)c1ccc(CN2CCC(CNC(=O)c3n[nH]c4ccc(OC)cc34)CC2)o1` [Compound 23, Ethyl 5-{[4-({[(5-methoxy-1H-indazol-3-yl)carbonyl]amino}methyl)piperidin-1-yl]methyl}furan-2-carboxylate], the IC50 amounted to 330 nM. Same read-out and setting: with `COc1ccc2[nH]nc(C(=O)NCC3CCN(CCN4C[C@@H](C)O[C@@H](C)C4)CC3)c2c1` [Compound 25, N-[(1-{2-[(2R,6S)-2,6-dimethylmorpholin-4-yl]ethyl}piperidin-4-yl)methyl]-5-methoxy-1H-indazole-3-carboxamide] the figure was > 1000 nM and 1400 nM. Turning to `COc1ccc2[nH]nc(C(=O)NCC3CCN(CCCN4C[C@@H](C)O[C@@H](C)C4)CC3)c2c1` [Compound 26, N-[(1-{3-[(2R,6S)-2,6-dimethylmorpholin-4-yl]propyl}piperidin-4-yl)methyl]-5-methoxy-1H-indazole-3-carboxamide], the concentration for half-maximal inhibition (IC50) is > 1000 nM and 2100 nM.

For orientation: IC50 means the concentration needed to halve the response being measured. In general, inhibition refers to the relative decrease from the control value, in per cent.
